In US20230159510A1, “NOVEL PRMT5 INHIBITORS” (AMGEN INC., priority 2020, published 2023):
Where two headings read alike, the source gives them in different places.

How the values were obtained:
HCT116 MTAP null cells = test: HCT116 proliferation assay, MTAP null cells (CellTiter-Glo, 6 days); format: cell-based; settings: HCT116-MTAP null, 144 h, read-out: Protif_ HCT116-MTAP null IC50
Outline: (§1)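 RPMI 1640/10% FBS; overnight attachment at 37° C, 5% CO2; 8–9-pt 1:3 titration, top 1 or 10 µM; DMSO ctrl; luminescence readout.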

HCT116 WT cells = test: HCT116 proliferation assay, WT cells (CellTiter-Glo, 6 days); format: cell-based; settings: read-out: Prolif_HCT116-WT IC50
Outline: as §1

PRMT5/MEP50 = PRMT5/MEP50 (Homo sapiens, UniProt O14744); test: MTase-Glo methyl transferase assay, Method B (FL-Histone H2A, 1 µM MTA, 1 h pre-incubation); format: biochemical; set-up: purchased Reaction Biology Corp RD-11-292; settings: read-out: PRMT5 MTase Glo Ki (nM, Meth. B)
Outline: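 PRMT5/MEP50 (4 nM) was pre-incubated 1 h with compound, 5 µM SAM and 1 µM MTA, then started with 2.5 µM FL-Histone H2A in Tris pH 8.0 buffer. After 20 h at room temperature, SAH was detected by MTase-Glo luminescence, and IC50/KI were fitted from dose-response curves.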

PRMT5/MEP50, sequence (O14744 2-637 limits assumed): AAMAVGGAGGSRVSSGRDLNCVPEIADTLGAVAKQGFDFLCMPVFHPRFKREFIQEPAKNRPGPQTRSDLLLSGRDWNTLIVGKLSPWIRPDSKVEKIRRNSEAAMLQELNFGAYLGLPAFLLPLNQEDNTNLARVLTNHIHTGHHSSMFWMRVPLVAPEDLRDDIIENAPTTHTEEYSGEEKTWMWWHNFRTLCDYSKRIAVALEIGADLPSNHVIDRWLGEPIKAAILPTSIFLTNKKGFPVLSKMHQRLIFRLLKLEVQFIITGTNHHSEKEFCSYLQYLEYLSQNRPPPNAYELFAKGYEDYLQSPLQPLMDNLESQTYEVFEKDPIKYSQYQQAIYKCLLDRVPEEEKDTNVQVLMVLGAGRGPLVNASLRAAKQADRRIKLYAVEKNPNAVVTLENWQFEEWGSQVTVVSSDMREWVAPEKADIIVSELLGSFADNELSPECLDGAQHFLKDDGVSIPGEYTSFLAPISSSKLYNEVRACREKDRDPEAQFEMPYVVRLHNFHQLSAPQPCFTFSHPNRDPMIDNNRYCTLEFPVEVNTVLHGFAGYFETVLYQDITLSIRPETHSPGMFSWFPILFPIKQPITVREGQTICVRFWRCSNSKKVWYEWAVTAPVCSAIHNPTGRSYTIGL
PRMT5/MEP50, sequence (Q9BQA1 2-342 partner limits assumed): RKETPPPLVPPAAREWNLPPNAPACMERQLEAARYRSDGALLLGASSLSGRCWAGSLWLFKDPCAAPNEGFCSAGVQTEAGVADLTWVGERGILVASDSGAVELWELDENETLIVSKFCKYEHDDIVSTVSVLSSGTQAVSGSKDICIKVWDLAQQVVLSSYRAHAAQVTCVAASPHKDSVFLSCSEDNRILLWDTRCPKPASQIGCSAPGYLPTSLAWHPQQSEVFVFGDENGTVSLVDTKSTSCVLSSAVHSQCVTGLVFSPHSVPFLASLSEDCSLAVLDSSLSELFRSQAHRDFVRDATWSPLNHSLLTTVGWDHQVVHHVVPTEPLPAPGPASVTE

Row | SMILES | IC50 (HCT116 MTAP null cells) [nM] | IC50 (HCT116 WT cells; Homo sapiens, HCT-116, 144 h) [nM] | Ki (PRMT5/MEP50) [nM] | IC50 (HCT116 WT cells) [nM]
1 | Cc1cc2cc(C(=O)N(Cc3ccc(C(F)(F)F)cn3)CC(C)C#N)ccc2nc1N (stereo not drawn) [Example 694, 2-amino-N-(2-cyanopropyl)-3-methyl-N-[[5-(trifluoromethyl)-2-pyridyl]methyl] quinoline-6-carboxamide] | 224 | 8600 | 5.62 | –
2 | Cc1cc2cc(C(=O)N(Cc3ccc(C#N)cn3)C3CCCC3C#N)c(F)cc2nc1N (stereo not drawn) [Example 703, 2-amino-N-(2-cyanocyclopentyl)-N-[(5-cyano-2-pyridyl)methyl] -7-fluoro-3-methyl-quinoline-6-carboxamide] | 222 | 2300 | 5.62 | –
3 | Cc1cc2cc(C(=O)N(Cc3ccc(C(F)(F)F)cn3)C3CC3C3CC3)ccc2nc1N (stereo not drawn) [Example 705, 2-amino-N-(2-cyclopropylcyclopropyl)-3-methyl-N-[[5-(trifluoromethyl)-2-pyridyl]methyl] quinoline-6-carboxamide] | 760 | > 1000 | 9.63 | –
4 | Cc1csc(CN(Cc2ccc(C(F)(F)F)cn2)C(=O)c2ccc3nc(N)c(C)cc3c2)n1 [Example 708, 2-amino-3-methyl-N-[(4-methylthiazol-2-yl)methyl]-N-[[5-(trifluoromethyl)-2-pyridyl]methyl]quinoline-6-carboxamide] | 155 | > 1000 | 2.79 | –
5 | Cc1cc(N)nc2ccc(C(=O)N(Cc3ccc(C(F)(F)F)cn3)Cc3ccn(C)n3)cc12 [Example 709, 2-amino-4-methyl-N-[(1-methylpyrazol-3-yl)methyl]-N-[[5-(trifluoromethyl)-2-pyridyl]methyl] quinoline-6-carboxamide] | 334 | 1430 | 2.97 | –
6 | Cc1cc(N)nc2ccc(C(=O)N(Cc3ccc(C(F)(F)F)cn3)Cc3ncn(C)n3)cc12 [Example 710, 2-amino-4-methyl-N-[(1-methyl-1,2,4-triazol-3-yl)methyl]-N-[[5-(trifluoromethyl)-2-pyridyl]methyl] quinoline-6-carboxamide] | 177 | 1140 | 4.13 | –

The next molecules have a lower IC50 (HCT116 MTAP null cells) than those just listed; values first:

Row | IC50 (HCT116 MTAP null cells) [nM] | IC50 (HCT116 WT cells; Homo sapiens, HCT-116, 144 h) [nM] | Ki (PRMT5/MEP50) [nM] | IC50 (HCT116 WT cells) [nM] | SMILES
7 | 80 | – | 25.1 | > 1000 | CO[C@@H]1COCC[C@H]1N(Cc1ccc(C(F)(F)F)cn1)C(=O)c1ccc2nc(N)c(C)cc2c1 [Example 704, 2-amino-N-[(3 S,4R)-3-methoxytetrahydropyran-4-yl]-3-methyl-N-[[5-(trifluoromethyl)-2-pyridyl]methyl] quinoline-6-carboxamide]
8 | 50 | > 1000 | 3.86 | – | Cc1cc2cc(C(=O)N(Cc3ccc(C(F)(F)F)cn3)C3CCCC3C#N)ccc2nc1N (stereo not drawn) [Example 699, 2-amino-N-(2-cyanocyclopentyl)-3-methyl-N-[[5-(trifluoromethyl)-2-pyridyl]methyl] quinoline-6-carboxamide]
9 | 46 | 560 | 5.12 | – | Cc1cc2cc(C(=O)N(Cc3ccc(C(F)(F)F)cn3)C3CCCC3C#N)c(F)cc2nc1N (stereo not drawn) [Example 702, 2-amino-N-(2-cyanocyclopentyl)-7-fluoro-3-methyl-N-[[5-(trifluoromethyl)-2-pyridyl]methyl] quinoline-6-carboxamide]
